This passage reports Ki results from patent EP1935887A1, “Heterocyclic substituted carbonyl derivatives and their use as dopamine D3 receptor ligands” (Aventis Pharmaceuticals Inc., priority 2001, dated 2002).

One assay deals with T1, Cloned Human Dopamine D3 Receptors (Homo sapiens, UniProt P35462).
T1 construct: expressed in transfected cells; membrane homogenate
T1 sequence (P35462 whole entry): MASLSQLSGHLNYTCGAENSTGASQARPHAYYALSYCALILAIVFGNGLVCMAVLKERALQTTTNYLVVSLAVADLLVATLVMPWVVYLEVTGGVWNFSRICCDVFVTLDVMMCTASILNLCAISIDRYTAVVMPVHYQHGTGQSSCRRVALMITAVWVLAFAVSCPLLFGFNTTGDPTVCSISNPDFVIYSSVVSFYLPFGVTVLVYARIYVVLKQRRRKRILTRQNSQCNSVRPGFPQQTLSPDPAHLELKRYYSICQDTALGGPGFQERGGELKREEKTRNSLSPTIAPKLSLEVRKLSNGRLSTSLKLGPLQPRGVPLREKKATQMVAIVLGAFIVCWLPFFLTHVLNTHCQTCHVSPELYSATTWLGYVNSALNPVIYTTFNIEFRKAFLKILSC
In words: [N-Methyl-3H]Spiroperidol binding to cloned human dopamine D3 receptors. As to conditions: Table 2; unit inferred; read-out: d3Ki. Summed up:
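[N-methyl-3H]spiroperidol binding is run in Tris buffer, pH 7.7. Receptor source is membranes of a stably transfected, high-expressing CHO clone carrying the human D3 gene, kept at -80°C in 10% DMSO.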
For `CC1CCCC(NC(=O)[C@@H]2C[C@H]2CN2CCN(c3csc4cc(C(F)(F)F)ccc34)CC2)C1` (some centres unmarked) [compound 826884], the Ki was 15.2 nM.

With `CN(C(=O)[C@@H]1C[C@H]1CN1CCN(c2csc3cc(C(F)(F)F)ccc23)CC1)C1CCCCC1` [compound 826885], the Ki amounted to 20.3 nM. `O=C([C@@H]1C[C@H]1CN1CCN(c2csc3cc(C(F)(F)F)ccc23)CC1)N(c1ccccc1)C1CCCCC1` [compound 826886]: the Ki was found to be 136 nM. The same measure, in the same setting: under `C[C@H]1CC[C@H](NC(=O)CCCN2CCN(c3csc4cc(C(F)(F)F)ccc34)CC2Cc2ccccc2)CC1` (some centres unmarked) [compound 827055] stands 792 nM.

Still in this assay, the particulars now being: Table 2 part the 10th table; read-out: d3Ki.
`CN(C)C1CCN(C(=O)[C@@H]2C[C@H]2CN2CCCN(c3csc4cc(F)ccc34)CC2)C1` (some centres unmarked) [compound 826883]: the Ki was found to be 13.4 nM.

For the molecule `CC1(C)CC2CC(C)(CN2C(=O)[C@@H]2C[C@H]2CN2CCN(c3csc4cc(C(F)(F)F)ccc34)CC2)C1` (some centres unmarked) [compound 826896], the Ki amounted to 89.5 nM.

Turning to `CCOC(=O)C1CCN(C(=O)[C@@H]2C[C@H]2CN2CCN(c3csc4cc(C(F)(F)F)ccc34)CC2)CC1` [compound 826899], the Ki was 45.5 nM. The same measure, in the same setting: under `O=C([C@@H]1C[C@H]1CN1CCN(c2csc3cc(C(F)(F)F)ccc23)CC1)N1CCC(O)(c2ccc(Cl)cc2)CC1` [compound 826900] stands 181 nM. The same measure, in the same setting: the figure for `O=C([C@@H]1C[C@H]1CN1CCN(c2csc3cc(C(F)(F)F)ccc23)CC1)N1CCCC(O)C1` (some centres unmarked) [compound 826902] is 13.1 nM. Same read-out and setting: under `O=C([C@@H]1C[C@H]1CN1CCN(c2csc3cc(C(F)(F)F)ccc23)CC1)N1CCC(n2c(=O)[nH]c3ccccc32)CC1` [compound 826903] stands 7.47 nM; under `NC(=O)C1CCCN(C(=O)[C@@H]2C[C@H]2CN2CCN(c3csc4cc(C(F)(F)F)ccc34)CC2)C1` (some centres unmarked) [compound 826904], 39.4 nM; under `CC1CCCCN1C(=O)[C@@H]1C[C@H]1CN1CCN(c2csc3cc(C(F)(F)F)ccc23)CC1` (some centres unmarked) [compound 826905], 14.5 nM. In the case of `CC1CCN(C(=O)[C@@H]2C[C@H]2CN2CCN(c3csc4cc(C(F)(F)F)ccc34)CC2)CC1` [compound 826906], the Ki was found to be 39.5 nM. The same measure, in the same setting: under `CC1CCCN(C(=O)[C@@H]2C[C@H]2CN2CCN(c3csc4cc(C(F)(F)F)ccc34)CC2)C1` (some centres unmarked) [compound 826907] stands 18.8 nM; under `CCN(CC)C(=O)C1CCCN(C(=O)[C@@H]2C[C@H]2CN2CCN(c3csc4cc(C(F)(F)F)ccc34)CC2)C1` (some centres unmarked) [compound 826908], 7.06 nM. The same measure, in the same setting: the figure for `CCOC(=O)C1CCCN(C(=O)[C@@H]2C[C@H]2CN2CCN(c3csc4cc(C(F)(F)F)ccc34)CC2)C1` (some centres unmarked) [compound 826909] is 28.9 nM; for `O=C([C@@H]1C[C@H]1CN1CCN(c2csc3cc(C(F)(F)F)ccc23)CC1)N1CCC(N2CCCCC2)CC1` [compound 826910] it is 17.5 nM. Still for that read-out and setting: under `O=C([C@@H]1C[C@H]1CN1CCN(c2csc3cc(C(F)(F)F)ccc23)CC1)N1CCC(O)(c2ccccc2)CC1` [compound 826911] stands 93 nM; under `CC1(C)CCCN(C(=O)[C@@H]2C[C@H]2CN2CCN(c3csc4cc(C(F)(F)F)ccc34)CC2)C1` [compound 826912], 58.5 nM. Turning to `CC1CC(C)CN(C(=O)[C@@H]2C[C@H]2CN2CCN(c3csc4cc(C(F)(F)F)ccc34)CC2)C1` (some centres unmarked) [compound 826913], the Ki is 86.1 nM.

For `O=C([C@@H]1C[C@H]1CN1CCN(c2csc3cc(C(F)(F)F)ccc23)CC1)N1CCC(O)C1` (some centres unmarked) [compound 826914], the Ki was 101 nM. On the same count and under the same terms, the figure for `O=C([C@@H]1C[C@H]1CN1CCN(c2csc3cc(C(F)(F)F)ccc23)CC1)N1CCC[C@H]1CNc1ccccc1` [compound 826916] is 157 nM. On the same count and under the same terms, under `COC[C@@H]1CCCN1C(=O)[C@@H]1C[C@H]1CN1CCN(c2csc3cc(C(F)(F)F)ccc23)CC1` [compound 826917] stands 196 nM; under `CC1CCCN1C(=O)[C@@H]1C[C@H]1CN1CCN(c2csc3cc(C(F)(F)F)ccc23)CC1` (some centres unmarked) [compound 826918], 30.3 nM. As to `Cc1cccc(C)c1NC[C@@H]1CCCN1C(=O)[C@@H]1C[C@H]1CN1CCN(c2csc3cc(C(F)(F)F)ccc23)CC1` [compound 826919], the Ki was found to be 329 nM. Consider `O=C([C@@H]1C[C@H]1CN1CCN(c2csc3cc(C(F)(F)F)ccc23)CC1)N1CCC[C@H]1CO` [compound 826920], for which the Ki was 67.6 nM.

As to `CC(=O)N(C)C1CCN(C(=O)[C@@H]2C[C@H]2CN2CCN(c3csc4cc(C(F)(F)F)ccc34)CC2)C1` (some centres unmarked) [compound 826921], the Ki was 183 nM.

As to `CC(=O)N[C@@H]1CCN(C(=O)[C@@H]2C[C@H]2CN2CCN(c3csc4cc(C(F)(F)F)ccc34)CC2)C1` [compound 826922], the Ki was found to be 183 nM. Same read-out and setting: the figure for `COC[C@H]1CCCN1C(=O)[C@@H]1C[C@H]1CN1CCN(c2csc3cc(C(F)(F)F)ccc23)CC1` [compound 826923] is 141 nM. The same measure, in the same setting: under `CN(C)[C@H]1CCN(C(=O)[C@@H]2C[C@H]2CN2CCN(c3csc4cc(C(F)(F)F)ccc34)CC2)C1` [compound 826926] stands 86.5 nM.

Regarding `CC1CCC(C)N1C(=O)[C@@H]1C[C@H]1CN1CCN(c2csc3cc(C(F)(F)F)ccc23)CC1` (some centres unmarked) [compound 826928], the Ki was determined as 11.2 nM. On the same count and under the same terms, the figure for `O=C(CCCN1CCN(c2csc3cc(C(F)(F)F)ccc23)CC1Cc1ccccc1)N1CCC(O)CC1` (centres unmarked) [compound 827063] is 373 nM; for `CC1CCN(C(=O)CCCN2CCN(c3csc4cc(C(F)(F)F)ccc34)CC2Cc2ccccc2)CC1` (centres unmarked) [compound 827065] it is 168 nM.

`CC1CCCN(C(=O)CCCN2CCN(c3csc4cc(C(F)(F)F)ccc34)CC2Cc2ccccc2)C1` (centres unmarked) [compound 827066]: the Ki came out at 209 nM.

Still in this assay, the particulars now being: d3Ki, Table 2 part the 10th table.
For `O=C1CCN(C(=O)[C@@H]2C[C@H]2CN2CCN(c3csc4cc(C(F)(F)F)ccc34)CC2)CC1` [compound 826901], the Ki was 42.4 nM.

Staying with this assay, now noted: read-out: d3Ki.
As to `O=C(NNC1CCCCC1)[C@@H]1C[C@H]1CN1CCN(c2csc3cc(C(F)(F)F)ccc23)CC1` [compound 826887], the Ki turned out to be 83.8 nM.

With `CC1(C)C2CCC1(C)C(NC(=O)[C@@H]1C[C@H]1CN1CCN(c3csc4cc(C(F)(F)F)ccc34)CC1)C2` (some centres unmarked) [compound 826890], the Ki amounted to 38 nM. On the same count and under the same terms, the figure for `CC(C)[C@@H]1CC[C@@H](C)C[C@H]1NC(=O)[C@@H]1C[C@H]1CN1CCN(c2csc3cc(C(F)(F)F)ccc23)CC1` [compound 826891] is 263 nM; for `O=C(N[C@H]1CCCC[C@@H]1O)[C@@H]1C[C@H]1CN1CCN(c2csc3cc(C(F)(F)F)ccc23)CC1` [compound 826892] it is 25.9 nM.

Regarding `CC1CC(NC(=O)[C@@H]2C[C@H]2CN2CCN(c3csc4cc(C(F)(F)F)ccc34)CC2)CC(C)(C)C1` (some centres unmarked) [compound 826893], the Ki is 20.4 nM. The same measure, in the same setting: the figure for `CCN(C(=O)[C@@H]1C[C@H]1CN1CCN(c2csc3cc(C(F)(F)F)ccc23)CC1)C1CCCCC1` [compound 826894] is 35 nM; for `O=C([C@@H]1C[C@H]1CN1CCN(c2csc3cc(C(F)(F)F)ccc23)CC1)N(CCO)C1CCCCC1` [compound 826895] it is 48.8 nM. In the case of `CCOC(=O)[C@H]1CCCC[C@H]1NC(=O)[C@@H]1C[C@H]1CN1CCN(c2csc3cc(C(F)(F)F)ccc23)CC1` [compound 826897], the Ki was 128 nM.

Regarding `CCOC(=O)[C@H]1CCCC[C@@H]1NC(=O)[C@@H]1C[C@H]1CN1CCN(c2csc3cc(C(F)(F)F)ccc23)CC1` [compound 826898], the Ki stood at 50.5 nM.
